According to patent US20260285850A1, “SUBSTITUTED OXAZOLIDINONES AND IMIDAZOLINONES AS HERBICIDES” (FMC CORPORATION, priority 2023, published 2026):

Experiments:
Format in all cases: in vivo
[1] = system: oat, wild (wild oat, Avena fatua); assay: Test A postemergence application, visual injury rating 0-100; conditions: 10 days
Text: (§1) Seeds of plant species selected from barnyardgrass (Echinochloa crus-galli), blackgrass (Alopecurus myosuroides), corn (Zea mays), foxtail, giant (giant foxtail, Setaria faberi), green foxtail (Setaria viridis), goosegrass (Eleusine indica), kochia (Bassia scoparia), oat, wild (wild oat, Avena fatua), palmer (palmer amaranth, palmer pigweed, Amaranthus palmeri), ragweed (common ragweed, Ambrosia artemisiifolia), ryegrass, Italian (italian ryegrass, Lolium multiflorum), soybean (Glycine max) and wheat (Triticum aestivum) were planted into a blend of loam soil and sand and treated preemergence with a directed soil spray using test chemicals formulated in a non-phytotoxic solvent mixture which included a surfactant.
(§2) At the same time, plants selected from these crops and weed species and also galium (catchweed bedstraw, Galium aparine) and horseweed (Erigeron canadensis) were planted in pots containing the same blend of loam soil and sand and treated with postemergence applications of test chemicals formulated in the same manner. Plants ranged in height from 2 to 10 cm and were in the one- to two-leaf stage for the postemergence treatment. Treated plants and untreated controls were maintained in a greenhouse for 10 days, after which time all treated plants were compared to untreated controls and visually evaluated for injury. Plant response ratings, summarized in Table A, are based on a 0 to 100 scale where 0 is no effect and 100 is complete control. A dash (-) response means no test result.

[2] = system: barnyardgrass (Echinochloa crus-galli); assay: as above; conditions: 10 days
Text: as §1, §2

[3] = system: horseweed (Erigeron canadensis); assay: as above; conditions: 10 days
Text: as §1, §2

[4] = system: corn (Zea mays); assay: as above; conditions: 10 days
Text: as §1, §2

[5] = system: wheat (Triticum aestivum); assay: as above; conditions: 10 days
Text: as §1, §2

[6] = system: ragweed (common ragweed, Ambrosia artemisiifolia); assay: as above; conditions: 10 days
Text: as §1, §2

[7] = system: kochia (Bassia scoparia); assay: as above; conditions: 10 days
Text: as §1, §2

[8] = system: ryegrass, Italian (italian ryegrass, Lolium multiflorum); assay: as above; conditions: 10 days
Text: as §1, §2

[9] = system: green foxtail (Setaria viridis); assay: as above; conditions: 10 days
Text: as §1, §2

[10] = system: palmer (palmer amaranth, palmer pigweed, Amaranthus palmeri); assay: as above; conditions: 10 days
Text: as §1, §2

[11] = system: soybean (Glycine max); assay: as above; conditions: 10 days
Text: as §1, §2

[12] = system: blackgrass (Alopecurus myosuroides); assay: as above; conditions: 10 days
Text: as §1, §2

[13] = system: oat, wild (wild oat, Avena fatua); assay: Test A preemergence soil spray, visual injury rating 0-100; conditions: 10 days, 0 = no effect, 100 = complete control
Text: as §1, §2

[14] = system: barnyardgrass (Echinochloa crus-galli); assay: as above; conditions: 10 days, 0 = no effect, 100 = complete control
Text: as §1, §2

[15] = system: corn (Zea mays); assay: as above; conditions: 10 days, 0 = no effect, 100 = complete control
Text: as §1, §2

[16] = system: wheat (Triticum aestivum); assay: as above; conditions: 10 days, 0 = no effect, 100 = complete control
Text: as §1, §2

[17] = system: ragweed (common ragweed, Ambrosia artemisiifolia); assay: as above; conditions: 10 days, 0 = no effect, 100 = complete control
Text: as §1, §2

[18] = system: kochia (Bassia scoparia); assay: as above; conditions: 10 days, 0 = no effect, 100 = complete control
Text: as §1, §2

[19] = system: ryegrass, Italian (italian ryegrass, Lolium multiflorum); assay: as above; conditions: 10 days, 0 = no effect, 100 = complete control
Text: as §1, §2

[20] = system: green foxtail (Setaria viridis); assay: as above; conditions: 10 days, 0 = no effect, 100 = complete control
Text: as §1, §2

[21] = system: palmer (palmer amaranth, palmer pigweed, Amaranthus palmeri); assay: as above; conditions: 10 days, 0 = no effect, 100 = complete control
Text: as §1, §2

[22] = system: soybean (Glycine max); assay: as above; conditions: 10 days, 0 = no effect, 100 = complete control
Text: as §1, §2

[23] = system: blackgrass (Alopecurus myosuroides); assay: as above; conditions: 10 days, 0 = no effect, 100 = complete control
Text: as §1, §2

[24] = 31 g ai/ha, postemergence, 0 = no effect, 100 = complete control
[25] = Postemergence, 125 g ai/ha, 0 is no effect, 100 is complete control

CONC(=O)C1CC(NC(=O)C2(C)CN(c3cc(F)cc(F)c3)C(=O)O2)CO1 (stereo not shown) [Compound 41]
10: Oat, Wild plant response rating (0-100) [1, 24]
80: Wheat plant response rating (0 to 100 scale) [5, 25]
50: Ryegrass, Italian plant response rating (0 to 100 scale) [8, 25]
0: Barnyardgrass plant response rating (0-100) [2, 24] | Horseweed plant response rating (0-100) [3, 24] | Horseweed plant response rating (0 to 100 scale) [3, 25] | Corn plant response rating (0-100) [4, 24] | Corn plant response rating (0 to 100 scale) [4, 25] | Ragweed plant response rating (0-100) [6, 24] | Ragweed plant response rating (0 to 100 scale) [6, 25] | Kochia plant response rating (0-100) [7, 24] | Kochia plant response rating (0 to 100 scale) [7, 25] | Ryegrass, Italian plant response rating (0-100) [8, 24] | Amaranth, Palmer plant response rating (0-100) [10, 24] | Amaranth, Palmer / Pigweed, Palmer plant response rating (0 to 100 scale) [10, 25] | Soybean plant response rating (0-100) [11, 24] | Soybean plant response rating (0 to 100 scale) [11, 25] | Blackgrass plant response rating (0-100) [12, 24] | Oat, Wild plant response rating (0-100) ([13]; 31 g ai/ha) | Oat, Wild plant response rating (0 to 100 scale) ([13]; 125 g ai/ha) | Barnyardgrass plant response rating (0-100) ([14]; 31 g ai/ha) | Barnyardgrass plant response rating (0 to 100 scale) ([14]; 125 g ai/ha) | Corn plant response rating (0-100) ([15]; 31 g ai/ha) | Corn plant response rating (0 to 100 scale) ([15]; 125 g ai/ha) | Wheat plant response rating (0-100) ([16]; 31 g ai/ha) | Wheat plant response rating (0 to 100 scale) ([16]; 125 g ai/ha) | Ragweed plant response rating (0-100) ([17]; 31 g ai/ha) | Ragweed plant response rating (0 to 100 scale) ([17]; 125 g ai/ha) | Kochia plant response rating (0-100) ([18]; 31 g ai/ha) | Kochia plant response rating (0 to 100 scale) ([18]; 125 g ai/ha) | Ryegrass, Italian plant response rating (0-100) ([19]; 31 g ai/ha) | Ryegrass, Italian plant response rating (0 to 100 scale) ([19]; 125 g ai/ha) | Foxtail, Green plant response rating (0-100) ([20]; 31 g ai/ha) | Foxtail, Green plant response rating (0 to 100 scale) ([20]; 125 g ai/ha) | Amaranth, Palmer plant response rating (0-100) ([21]; 31 g ai/ha) | Amaranth, Palmer plant response rating (0 to 100 scale) ([21]; 125 g ai/ha) | Soybean plant response rating (0-100) ([22]; 31 g ai/ha) | Soybean plant response rating (0 to 100 scale) ([22]; 125 g ai/ha) | Blackgrass plant response rating (0-100) ([23]; 31 g ai/ha) | Blackgrass plant response rating (0 to 100 scale) ([23]; 125 g ai/ha)
20: Wheat plant response rating (0-100) [5, 24] | Foxtail, Green plant response rating (0-100) [9, 24]
30: Barnyardgrass plant response rating (0 to 100 scale) [2, 25] | Foxtail, Green plant response rating (0 to 100 scale) [9, 25]
90: Blackgrass plant response rating (0 to 100 scale) [12, 25]
40: Oat, Wild plant response rating (0 to 100 scale) [1, 25]
